Data reported in patent US20070009575A1, “Novel use of antisecretory factor” (priority 2003, published 2007).

Test system: freeze-injured brain tissue
Type: in vivo, rat
Conditions: 6 days after freezing injury
Text: The rats were anaesthetized by the inhalation of isofluorane, and had their heads shaved. The skin was cut open in the mid sagittal plane on the skull. The calvarium was exposed on the left side between the bregma and the lambda. The periostium was detached from the bone, which then was rinsed. Thereafter, great care was taken to remove blood and any fluid from the calvarium as that may impair the subsequent procedure. A probe made of brass, having a cylindric 4 mm long end piece with a diameter of 3 mm, was cooled by immersion in a standardized manner in liquid nitrogen. The cooled probe was thereafter applied for 40 s on the calvarium in between the lambda and bregma, 4 mm lateral to the sagittal mid line. The probe was then removed and the skin wound sutured. The application of the freezing probe resulted transiently in that the brain tissue underlying the exposure site turn frozen. It ought to be stressed that the skull was not opened and no fractures or other signs of gross damage induced. The animals moved afterwards without any obvious problems, behaved normally and ingested food and drinking fluid close to as those untreated, after having recovered from the anaesthesia. Rats (body weight 180-350 g at the start of the experiments), male and female, were supplied with standard pelleted food and tap water prior to and after the brain injury. At the day of injury, the rat were anaesthetized and prepared as described in experiment 2. The freezing probe was applied once for 40 seconds. After suturing the skin wound in the skull and recovered from the anaesthesia, the rats were allowed to move freely. All rats received twice daily for 5 days, starting on the day of surgery, an intravenous injection of 1-10 μg per kg body weight of a synthetic peptide, being a fragment of AF, comprising amino acids 36-51, i.e. composed of 16 amino acids. It was dissolved in saline and prepared freshly prior to each injection. There was no intravenous injection of the peptide on the day of sacrifice, day 6. […] Six days after the freezing injury, the rats were sacrificed and fixed by perfusion as described. […] There were no bleedings in or on the brain. […] The penumbra appeared to be affected by minor oedema. […] Irregularly distributed swellings and beadings of axons and dendrites were sparse. […] There was, however, a variation in the extent of the neuroprotection exerted by the injected peptide.

[1] = peptide i.v. 1-10 μg per kg twice daily for 5 days
[2] = peptide i.v. twice daily for 5 days, vs rats of experiment 2

Which results are given for “fragment of AF, comprising amino acids 36-51: synthetic peptide, being a fragment of AF, comprising amino acids 36-51, i.e. composed of 16 amino acids (VCHSKTRSNPENNVGL; listed as Homo sapiens)”?
bleedings in or on the brain [1]: no bleedings; oedema in the penumbra [1]: minor oedema; shallow depression of the central parts of the injured area [1]: not marked and in some cases difficult to identify for certain; extent of brain injury on opening the skull bone (peptide i.v. 1-10 μg per kg twice daily for 5 days, vs standard pellets and tap water only): less extensive brain injury; irregularly distributed swellings and beadings of axons and dendrites (peptide i.v. twice daily for 5 days): sparse; proliferation of neural stem and progenitor cells in the SGZ (peptide i.v. twice daily for 5 days, hippocampus): increased proliferation; occurrence of damaged cells (light microscopy of stained sections) [2]: less extensive occurrence of damaged cells; residing extravasation of blood (light microscopy) [2]: rarely any residing extravasation of blood; astrogliosis in the penumbra region (peptide i.v. twice daily for 5 days, vs standard pellets and tap water only): not as extensive and wide-spread
